Test results: BindingDB's records for doi:10.1021/jm00083a023 (Warner-Lambert, 1992)

Test: Compound was evaluated for the inhibition of serum-opsonized zymosan stimulated myeloperoxidase release from human neutrophil

IC50: 7.5 µM
SMILES: COc1ccc2sc(C(=O)Nc3nnn[nH]3)c(OC(C)C)c2c1
